Measurements from patent US20250129070A1, “BIFUNCTIONAL ANDROGEN RECEPTOR COMPOUNDS” (priority 2023, published 2025).

Assays:
AR / CBP ternary complex = test: Ternary complex formation assay (sandwich ELISA, AR capture / CBP detection) in VCaP cell lysates; type: cell-based; conditions: 1.5 hours treatment, sandwich ELISA (AR capture, CBP or p300 detection)
In short: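 Anti-AR (AR 441)-coated plates capture AR from lysates of VCaP cells grown ≥3 days at 50K/well in 5% charcoal-stripped FBS, dosed with bifunctional for 1.5 h and lysed 30 min at 4 °C. Co-captured CBP/p300 is probed with rabbit mAb and HRP anti-rabbit, then QuantaRed fluorescence (570/585) is read at 0, 5 and 15 min.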

VCaP cells = test: VCaP growth inhibition assay; type: cell-based; conditions: 30 pM R1881, 9 days, CTG
In short: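 Growth read by CTG luminescence after 9-day exposure to compound (final 100 nM–10 fM, 1:5 steps) plus 30 pM R1881, in phenol red-free DMEM with 5% CSS. Cells pre-incubated 72 h before dosing; IC50 by nonlinear 4-parameter regression.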

| SMILES | EC50 (AR / CBP ternary complex) [nM] | IC50 (VCaP cells) [nM] |
| --- | --- | --- |
| CC(=O)N1CCc2c(c(N3CCCc4cc(-c5cnn(C)c5)c(C(F)F)cc43)nn2C2CCN(Cc3ncc(C(=O)NC4C(C)(C)C(Oc5ccc(C#N)c(Cl)c5)C4(C)C)cn3)CC2)C1 (stereo not drawn) [Compound 94, 2-[[4-[5-acetyl-3-[7-(difluoromethyl)-6-(1-methylpyrazol-4-yl)-3,4-dihydro-2H-quinolin-1-yl]-6,7-dihydro-4H-pyrazolo[4,3-c]pyridin-1-yl]-1-piperidyl]methyl]-N-[3-(3-chloro-4-cyano-phenoxy)-2,2,4,4-tetramethyl-cyclobutyl]pyrimidine-5-carboxamide] | 10 to 100 | 1 to 100 |
| COc1cc(OC2C(C)(C)C(NC(=O)c3cnc(N4CCC(CN5CCC(n6nc(N7CCCc8cc(-c9cnn(C)c9)c(C(F)F)cc87)c7c6CCN(C(C)=O)C7)CC5)C5(CC5)C4)nc3)C2(C)C)ccc1C#N (stereo not drawn) [Compound 362, 2-[8-[[4-[5-acetyl-3-[7-(difluoromethyl)-6-(1-methylpyrazol-4-yl)-3,4-dihydro-2H-quinolin-1-yl]-6,7-dihydro-4H-pyrazolo[4,3-c]pyridin-1-yl]-1-piperidyl]methyl]-5-azaspiro[2.5]octan-5-yl]-N-[3-(4-cyano-3-methoxy-phenoxy)-2,2,4,4-tetramethyl-cyclobutyl]pyrimidine-5-carboxamide] | < 1 | ≤ 0.1 |
| CC(=O)N1CCc2c(c(Nc3ccc(-c4cnn(C)c4)cc3F)nn2C2CCN(CCN3CCN(c4ncc(C(=O)NC5C(C)(C)C(Oc6ccc(C#N)c(Cl)c6)C5(C)C)cn4)CC3)CC2)C1 (stereo not drawn) [Compound 167, 2-[4-[2-[4-[5-acetyl-3-[2-fluoro-4-(1-methylpyrazol-4-yl)anilino]-6,7-dihydro-4H-pyrazolo[4,3-c]pyridin-1-yl]-1-piperidyl]ethyl]piperazin-1-yl]-N-[3-(3-chloro-4-cyano-phenoxy)-2,2,4,4-tetramethyl-cyclobutyl]pyrimidine-5-carboxamide] | < 1 | 0.1 to 1 |
| COc1cc(OC2C(C)(C)C(NC(=O)c3ccc(N4CC(N5CCC(n6nc(N7CCCc8cc(-c9cnn(C)c9)c(C(F)F)cc87)c7c6CCN(C(C)=O)C7)CC5)C4)cc3)C2(C)C)ccc1C#N (stereo not drawn) [Compound 310, 4-[3-[4-[5-acetyl-3-[7-(difluoromethyl)-6-(1-methylpyrazol-4-yl)-3,4-dihydro-2H-quinolin-1-yl]-6,7-dihydro-4H-pyrazolo[4,3-c]pyridin-1-yl]-1-piperidyl]azetidin-1-yl]-N-[3-(4-cyano-3-methoxy-phenoxy)-2,2,4,4-tetramethyl-cyclobutyl]benzamide] | < 1 | ≤ 0.1 |
| CC(=O)N1CCc2c(c(N3CCCc4cc(-c5cnn(C)c5)c(C(F)F)cc43)nn2C2CCN(Cc3cn(Cc4ncc(C(=O)NC5C(C)(C)C(Oc6ccc(C#N)c(Cl)c6)C5(C)C)cn4)nn3)CC2)C1 (stereo not drawn) [Compound 188, 2-[[4-[[4-[5-acetyl-3-[7-(difluoromethyl)-6-(1-methylpyrazol-4-yl)-3,4-dihydro-2H-quinolin-1-yl]-6,7-dihydro-4H-pyrazolo[4,3-c]pyridin-1-yl]-1-piperidyl]methyl]triazol-1-yl]methyl]-N-[3-(3-chloro-4-cyano-phenoxy)-2,2,4,4-tetramethyl-cyclobutyl]pyrimidine-5-carboxamide] | < 1 | ≤ 0.1 |
| CC(=O)N1CCc2c(c(N3CCCc4cc(-c5cnn(C)c5)c(C(F)F)cc43)nn2C2CCN(CC3C(C)CN(c4ncc(C(=O)NC5C(C)(C)C(Oc6ccc(C#N)c(C)c6C)C5(C)C)cn4)CC3C)CC2)C1 (stereo not drawn) [Compound 461, 2-[4-[[4-[5-acetyl-3-[7-(difluoromethyl)-6-(1-methylpyrazol-4-yl)-3,4-dihydro-2H-quinolin-1-yl]-6,7-dihydro-4H-pyrazolo[4,3-c]pyridin-1-yl]-1-piperidyl]methyl]-3,5-dimethyl-1-piperidyl]-N-[3-(4-cyano-2,3-dimethyl-phenoxy)-2,2,4,4-tetramethyl-cyclobutyl]pyrimidine-5-carboxamide] | < 1 | ≤ 0.1 |
| CC(=O)N1CCc2c(c(N3CCCc4cc(-c5cnn(C)c5)c(C(F)F)cc43)nn2C2CCN(C3CCC4(CC3)CN(c3ncc(C(=O)NC5C(C)(C)C(Oc6ccc(C#N)c(Cl)c6)C5(C)C)cn3)C4)CC2)C1 (stereo not drawn) [Compound 274, 2-[7-[4-[5-acetyl-3-[7-(difluoromethyl)-6-(1-methylpyrazol-4-yl)-3,4-dihydro-2H-quinolin-1-yl]-6,7-dihydro-4H-pyrazolo[4,3-c]pyridin-1-yl]-1-piperidyl]-2-azaspiro[3.5]nonan-2-yl]-N-[3-(3-chloro-4-cyano-phenoxy)-2,2,4,4-tetramethyl-cyclobutyl]pyrimidine-5-carboxamide] | < 1 | ≤ 0.1 |
| COc1cc(OC2C(C)(C)C(NC(=O)c3ccc(N4CCC(C(=O)N5CCC(n6nc(-c7cccc8cc(C9CC9)ncc78)c7c6CCN(C(C)=O)C7)CC5)CC4)cc3)C2(C)C)ccc1C#N (stereo not drawn) [Compound 256, 4-[4-[4-[5-acetyl-3-(3-cyclopropyl-8-isoquinolyl)-6,7-dihydro-4H-pyrazolo[4,3-c]pyridin-1-yl]piperidine-1-carbonyl]-1-piperidyl]-N-[3-(4-cyano-3-methoxy-phenoxy)-2,2,4,4-tetramethyl-cyclobutyl]benzamide] | < 1 | 0.1 to 1 |
| CC(=O)N1CCc2c(c(N3CCCc4cc(-c5cnn(C)c5)c(C(F)F)cc43)nn2C2CCN(C3CCC(C#Cc4ncc(C(=O)NC5C(C)(C)C(Oc6ccc(C#N)c(Cl)c6)C5(C)C)cn4)CC3)CC2)C1 (stereo not drawn) [Compound 293, 2-[2-[4-[4-[5-acetyl-3-[7-(difluoromethyl)-6-(1-methylpyrazol-4-yl)-3,4-dihydro-2H-quinolin-1-yl]-6,7-dihydro-4H-pyrazolo[4,3-c]pyridin-1-yl]-1-piperidyl]cyclohexyl]ethynyl]-N-[3-(3-chloro-4-cyano-phenoxy)-2,2,4,4-tetramethyl-cyclobutyl]pyrimidine-5-carboxamide] | < 1 | 0.1 to 1 |
| Cn1c(=O)sc2ccc(N3CCCc4cc(-c5ccc(CCC6CCN(c7ncc(C(=O)NC8C(C)(C)C(Oc9ccc(C#N)c(Cl)c9)C8(C)C)cn7)CC6)nc5)ncc43)cc21 (stereo not drawn) [Compound 237, N-[3-(3-chloro-4-cyano-phenoxy)-2,2,4,4-tetramethyl-cyclobutyl]-2-[4-[2-[5-[1-(3-methyl-2-oxo-1,3-benzothiazol-5-yl)-3,4-dihydro-2H-1,7-naphthyridin-6-yl]-2-pyridyl]ethyl]-1-piperidyl]pyrimidine-5-carboxamide] | < 1 | 1 to 100 |
| COc1cc(OC2C(C)(C)C(NC(=O)c3ccc(N4CC5(CCN(C6CCC(n7nc(N8CCCc9cc(-c%10cnn(C)c%10)c(C(F)F)cc98)c8c7CCN(C(C)=O)C8)CC6)CC5)C4)cc3)C2(C)C)ccc1C#N (stereo not drawn) [Compound 288, 4-[7-[4-[5-acetyl-3-[7-(difluoromethyl)-6-(1-methylpyrazol-4-yl)-3,4-dihydro-2H-quinolin-1-yl]-6,7-dihydro-4H-pyrazolo[4,3-c]pyridin-1-yl]cyclohexyl]-2,7-diazaspiro[3.5]nonan-2-yl]-N-[3-(4-cyano-3-methoxy-phenoxy)-2,2,4,4-tetramethyl-cyclobutyl]benzamide] | < 1 | ≤ 0.1 |
| CC(=O)N1CCc2c(c(-c3cccc4cc(-c5ccc(CCC6CC7(C6)CN(c6ncc(C(=O)NC8C(C)(C)C(Oc9ccc(C#N)c(Cl)c9)C8(C)C)cn6)C7)nc5)ncc34)nn2C)C1 (stereo not drawn) [Compound 229, 2-[6-[2-[5-[8-(5-acetyl-1-methyl-6,7-dihydro-4H-pyrazolo[4,3-c]pyridin-3-yl)-3-isoquinolyl]-2-pyridyl]ethyl]-2-azaspiro[3.3]heptan-2-yl]-N-[3-(3-chloro-4-cyano-phenoxy)-2,2,4,4-tetramethyl-cyclobutyl]pyrimidine-5-carboxamide] | 1 to 10 | 0.1 to 1 |
| COc1cc(OC2C(C)(C)C(NC(=O)c3ccc(N4CC(C)C(CN5CCC(n6nc(N7CCCc8cc(C#N)c(C(F)F)cc87)c7c6CCN(C(C)=O)C7)CC5)C(C)C4)cc3)C2(C)C)ccc1C#N (stereo not drawn) [Compound 459, 4-[4-[[4-[5-acetyl-3-[6-cyano-7-(difluoromethyl)-3,4-dihydro-2H-quinolin-1-yl]-6,7-dihydro-4H-pyrazolo[4,3-c]pyridin-1-yl]-1-piperidyl]methyl]-3,5-dimethyl-1-piperidyl]-N-[3-(4-cyano-3-methoxy-phenoxy)-2,2,4,4-tetramethyl-cyclobutyl]benzamide] | < 1 | 0.1 to 1 |
| COc1cc(OC2C(C)(C)C(NC(=O)c3ccc(N4CC5CC4CC5CN4CCC(n5nc(N6CCCc7cc(-c8cnn(C)c8)c(C(F)F)cc76)c6c5CCN(C(C)=O)C6)CC4)cc3)C2(C)C)ccc1C#N (stereo not drawn) [Compound 255, 4-[5-[[4-[5-acetyl-3-[7-(difluoromethyl)-6-(1-methylpyrazol-4-yl)-3,4-dihydro-2H-quinolin-1-yl]-6,7-dihydro-4H-pyrazolo[4,3-c]pyridin-1-yl]-1-piperidyl]methyl]-2-azabicyclo[2.2.1]heptan-2-yl]-N-[3-(4-cyano-3-methoxy-phenoxy)-2,2,4,4-tetramethyl-cyclobutyl]benzamide] | < 1 | 0.1 to 1 |
| CN1C(=O)CCc2cc(N3CCCc4cc(-c5ccc(CCC6CCN(c7ncc(C(=O)NC8C(C)(C)C(Oc9ccc(C#N)c(Cl)c9)C8(C)C)cn7)CC6)nc5)ncc43)ccc21 (stereo not drawn) [Compound 240, N-[3-(3-chloro-4-cyano-phenoxy)-2,2,4,4-tetramethyl-cyclobutyl]-2-[4-[2-[5-[1-(1-methyl-2-oxo-3,4-dihydroquinolin-6-yl)-3,4-dihydro-2H-1,7-naphthyridin-6-yl]-2-pyridyl]ethyl]-1-piperidyl]pyrimidine-5-carboxamide] | 1 to 10 | 1 to 100 |
